Assay results published in US6153616A, “Triazoles as therapeutic agents for fungal infections” (Synphar Laboratories, Inc., priority 1998, dated 2000).
Converted amounts (≈) assume the structure as drawn. Where two headings read alike, the source gives them in different places.

How the values were obtained:
[1] = tested on: C. glabrata; assay: In vitro antifungal activity (minimum inhibitory concentration), C. glabrata; assay type: cell-based; details: Nakaseomyces glabratus, 48 h at 37° C.
Protocol: (§1) The compounds of the present invention were evaluated in vitro for their antifungal activity and were assessed based on minimum inhibitory concentration of the test compound, i.e. the concentration of the test compound at which growth of particular organism fails to occur. […] The microorganisms used in this test include Candida albicans, C. tropicalis, C. kefyr, C. krusei, C. guilliermondii, C. glabrata, Cryptococcus neoformans, Aspergillus niger and A. fumigatus.

[2] = tested on: C. kefyr; assay: In vitro antifungal activity (minimum inhibitory concentration), C. kefyr; assay type: cell-based; details: Kluyveromyces marxianus, 48 h at 37° C.
Protocol: as §1

[3] = tested on: C. albicans; assay: In vivo therapeutic efficacy, C. albicans systemic infection in mice; details: Candida albicans, oral, i.v. and s.c. routes, survival vs control, read-out: Therapeutic efficacy (ED50) in mice systemic infections
Protocol: (§2) Certain selected compounds were evaluated in-vivo for their antifungal efficacy. Series of doses of test compounds were administered by oral, i.v and s.c. routes to infected mice, i.e mice that are inoculated with a strain of Candida albicans or Aspergillus fumigatus. Efficacy of test compound was determined based on survival of treated mice compared to control. The in vivo efficacy was assessed based on ED50 of the test compound. The following table provides ED50 of certain compounds for systemic infections of C. albicans and A. fumigatus in mice models.

[4] = tested on: C. krusei; assay: In vitro antifungal activity (minimum inhibitory concentration), C. krusei; assay type: cell-based; details: Pichia kudriavzevii, 48 h at 37° C.
Protocol: as §1

[5] = tested on: Candida albicans; assay: In vitro antifungal activity (minimum inhibitory concentration), Candida albicans; assay type: cell-based; details: 48 h at 37° C.
Protocol: as §1

[6] = tested on: A. fumigatus; assay: In vivo therapeutic efficacy, A. fumigatus systemic infection in mice; details: Aspergillus fumigatus, oral, i.v. and s.c. routes, survival vs control, read-out: Therapeutic efficacy (ED50) in mice systemic infections
Protocol: as §2

[7] = tested on: A. niger; assay: In vitro antifungal activity (minimum inhibitory concentration), A. niger; assay type: cell-based; details: Aspergillus niger, 48 h at 37° C.
Protocol: as §1

[8] = tested on: Aspergillus fumigatus; assay: In vitro antifungal activity (minimum inhibitory concentration), Aspergillus fumigatus; assay type: cell-based; details: 48 h at 37° C.
Protocol: as §1

[9] = tested on: C. tropicalis; assay: In vitro antifungal activity (minimum inhibitory concentration), C. tropicalis; assay type: cell-based; details: Candida tropicalis, 48 h at 37° C.
Protocol: as §1

[10] = tested on: Cryptococcus neoformans; assay: In vitro antifungal activity (minimum inhibitory concentration), Cryptococcus neoformans; assay type: cell-based; details: 48 h at 37° C.
Protocol: as §1

[11] = tested on: C. guilliermondii; assay: In vitro antifungal activity (minimum inhibitory concentration), C. guilliermondii; assay type: cell-based; details: Meyerozyma guilliermondii, 48 h at 37° C.
Protocol: as §1

[12] = tested on: Saccheromyces cerevisiae; assay: In vitro antifungal activity (minimum inhibitory concentration), Saccheromyces cerevisiae; assay type: cell-based
[13] = tested on: filamentous fungi; details: background; cited from earlier work
[14] = background; cited from earlier work
[15] = background; cited from earlier work; remark: listed apart in the source
[16] = Saccheromyces cerevisiae, 48 h at 37° C., read-out: MIC

Structure (SMILES)	MIC [1]	MIC [2]	ED50 [3]	MIC [4]	MIC [5]	ED50 [6]	MIC [7]	MIC [8]	MIC [9]	MIC [10]	MIC [11]	MIC [12, 16]	activity against filamentous fungi [13]	MIC ([12]; 48 h)	bioavailability [14]	protein binding [15]
CCC(CC)n1ncn(-c2ccc(N3CCN([C@H](C)[C@](O)(Cn4cncn4)c4ccc(F)cc4F)CC3)cc2)c1=O [Example 36]	0.09 µg/mL (≈ 0.159 µM)	0.048 µg/mL (≈ 0.0847 µM)	8.01 mg/kg	0.09 µg/mL (≈ 0.159 µM)	0.09 µg/mL (≈ 0.159 µM)	> 45 mg/kg	0.78 µg/mL (≈ 1.38 µM)	0.39 µg/mL (≈ 0.688 µM)	0.09 µg/mL (≈ 0.159 µM)	0.048 µg/mL (≈ 0.0847 µM)	0.048 µg/mL (≈ 0.0847 µM)	0.19 µg/mL (≈ 0.335 µM)	–	–	–	–
CCC(C)n1ncn(-c2ccc(N3CCN([C@H](C)[C@](O)(Cn4cncn4)c4ccc(F)cc4F)CC3)cc2)c1=O (stereo partly drawn) [Example 40, (2R,3R)-3-[4-{4-[2-(2-Butyl)-2H-1,2,4-triazol-3-one-4-yl]phenyl}piperazin-1-yl]2-(2,4-difluorophenyl)-1-(1H-1,2,4-triazol-1-yl)butan-2-ol]	0.39 µg/mL (≈ 0.706 µM)	0.048 µg/mL (≈ 0.0869 µM)	4.68 mg/kg	0.19 µg/mL (≈ 0.344 µM)	0.09 µg/mL (≈ 0.163 µM)	67 mg/kg	0.78 µg/mL (≈ 1.41 µM)	0.39 µg/mL (≈ 0.706 µM)	0.048 µg/mL (≈ 0.0869 µM)	0.48 µg/mL (≈ 0.869 µM)	0.048 µg/mL (≈ 0.0869 µM)	0.09 µg/mL (≈ 0.163 µM)	–	–	–	–
CC(C)n1ncn(-c2ccc(N3CCN([C@H](C)[C@](O)(Cn4cncn4)c4ccc(F)cc4F)CC3)cc2)c1=O [Example 41, (2R,3R)-2-(2,4-Difluorophenyl)-3-[4-{4-[2-(2-propyl)-2H-1,2,4-triazol-3-one-4-yl]phenyl}piperazin-1-yl]-1-(1H-1,2,4-triazol-1-yl)butan-2-ol]	0.78 µg/mL (≈ 1.45 µM)	0.48 µg/mL (≈ 0.891 µM)	8.01 mg/kg	1.56 µg/mL (≈ 2.9 µM)	0.09 µg/mL (≈ 0.167 µM)	89.3 mg/kg	3.12 µg/mL (≈ 5.79 µM)	0.78 µg/mL (≈ 1.45 µM)	0.09 µg/mL (≈ 0.167 µM)	0.48 µg/mL (≈ 0.891 µM)	0.048 µg/mL (≈ 0.0891 µM)	0.19 µg/mL (≈ 0.353 µM)	–	–	–	–
CC(O)Cn1ncn(-c2ccc(N3CCN([C@H](C)[C@](O)(Cn4cncn4)c4ccc(F)cc4F)CC3)cc2)c1=O (stereo partly drawn) [Example 42, (2R,3R)-2-(2,4-Difluorophenyl)-3-[4-{4-[2-(2-hydroxypropyl)-2H-1,2,4-triazol-3-one-4-yl]phenyl}piperazin-1-yl]-1-(1H-1,2,4-triazol-1-yl)butan-2-ol]	12.5 µg/mL (≈ 22.5 µM)	0.048 µg/mL (≈ 0.0865 µM)	> 90 mg/kg	1.56 µg/mL (≈ 2.81 µM)	0.09 µg/mL (≈ 0.162 µM)	71.1 mg/kg	3.12 µg/mL (≈ 5.63 µM)	0.39 µg/mL (≈ 0.703 µM)	0.09 µg/mL (≈ 0.162 µM)	0.19 µg/mL (≈ 0.343 µM)	0.09 µg/mL (≈ 0.162 µM)	0.39 µg/mL (≈ 0.703 µM)	–	–	–	–
C[C@@H](N1CCN(c2ccc(-n3cnn(Cc4ccc(C(F)(F)F)cc4)c3=O)cc2)CC1)[C@](O)(Cn1cncn1)c1ccc(F)cc1F [Example 43]	0.78 µg/mL (≈ 1.19 µM)	0.048 µg/mL (≈ 0.0733 µM)	1.57 mg/kg	0.09 µg/mL (≈ 0.137 µM)	0.048 µg/mL (≈ 0.0733 µM)	42.3 mg/kg	0.19 µg/mL (≈ 0.29 µM)	0.19 µg/mL (≈ 0.29 µM)	0.048 µg/mL (≈ 0.0733 µM)	0.048 µg/mL (≈ 0.0733 µM)	0.09 µg/mL (≈ 0.137 µM)	0.09 µg/mL (≈ 0.137 µM)	–	–	–	–
C[C@@H](N1CCN(c2ccc(-n3cnn(CC(F)(F)C(F)F)c3=O)cc2)CC1)[C@](O)(Cn1cncn1)c1ccc(F)cc1F [Example 44]	1.56 µg/mL (≈ 2.56 µM)	0.048 µg/mL (≈ 0.0786 µM)	–	0.09 µg/mL (≈ 0.147 µM)	0.048 µg/mL (≈ 0.0786 µM)	–	0.19 µg/mL (≈ 0.311 µM)	0.048 µg/mL (≈ 0.0786 µM)	0.048 µg/mL (≈ 0.0786 µM)	0.048 µg/mL (≈ 0.0786 µM)	0.048 µg/mL (≈ 0.0786 µM)	0.048 µg/mL (≈ 0.0786 µM)	–	–	–	–
C[C@@H](N1CCN(c2ccc(-n3cnn(Cc4ccc(F)cc4F)c3=O)cc2)CC1)[C@](O)(Cn1cncn1)c1ccc(F)cc1F [Example 46]	0.39 µg/mL (≈ 0.626 µM)	0.048 µg/mL (≈ 0.0771 µM)	56 mg/kg	0.19 µg/mL (≈ 0.305 µM)	0.048 µg/mL (≈ 0.0771 µM)	> 45 mg/kg	0.09 µg/mL (≈ 0.145 µM)	0.048 µg/mL (≈ 0.0771 µM)	0.048 µg/mL (≈ 0.0771 µM)	0.048 µg/mL (≈ 0.0771 µM)	0.048 µg/mL (≈ 0.0771 µM)	0.09 µg/mL (≈ 0.145 µM)	–	–	–	–
OC(Cn1cncn1)(Cn1cncn1)c1ccc(F)cc1F [Fluconazole, reference compound]	12.5 µg/mL (≈ 40.8 µM)	0.39 µg/mL (≈ 1.27 µM)	–	50 µg/mL (≈ 163 µM)	0.78 µg/mL (≈ 2.55 µM)	–	> 100 µg/mL	> 100 µg/mL	0.39 µg/mL (≈ 1.27 µM)	1.56 µg/mL (≈ 5.09 µM)	1.56 µg/mL (≈ 5.09 µM)	–	not active against filamentous fungi	6.25 µg/mL (≈ 20.4 µM)	–	–
CCC(C)n1ncn(-c2ccc(N3CCN(c4ccc(OCC5COC(Cn6cncn6)(c6ccc(Cl)cc6Cl)O5)cc4)CC3)cc2)c1=O (stereo not shown) [Itraconazole, reference compound]	0.19 µg/mL (≈ 0.269 µM)	0.09 µg/mL (≈ 0.128 µM)	–	0.39 µg/mL (≈ 0.553 µM)	0.09 µg/mL (≈ 0.128 µM)	–	0.39 µg/mL (≈ 0.553 µM)	0.19 µg/mL (≈ 0.269 µM)	0.09 µg/mL (≈ 0.128 µM)	0.39 µg/mL (≈ 0.553 µM)	0.19 µg/mL (≈ 0.269 µM)	0.39 µg/mL (≈ 0.553 µM)	active against filamentous fungi	–	less bioavailability	high protein binding
